These results are taken from patent US20040220204A1, “Pharmaceutical composition comprising a tricyclic compound for the prevention or treatment of skin diseases” (priority 2001, published 2004).

A short description of the data set: stabilization of FK506 dissolved in lower alkanediols. It counts as physicochemical. The note with it: such as ethylene glycol, propylene glycol, butylene glycol. On the procedure:
It was also confirmed that carboxybinyl polymer could make FK506 stable, when FK506 was dissolved in lower alkanediols, such as ethylene glycol, propylene glycol, butylene glycol, etc. And, it was further confirmed that a combination of hydroxypropyl cellulose and ascorbyl palmitate could also make FK506 stable, when FK506 was dissolved in lower alkanediols, such as ethylene glycol, propylene glycol, butylene glycol, etc.

Take `C=CC[C@@H]1/C=C(\C)C[C@H](C)C[C@H](OC)[C@H]2O[C@@](O)(C(=O)C(=O)N3CCCC[C@H]3C(=O)O[C@H](/C(C)=C/[C@@H]3CC[C@@H](O)[C@H](OC)C3)[C@H](C)[C@@H](O)CC1=O)[C@H](C)C[C@@H]2OC` [FK506, 17-allyl-1,14-dihydroxy-12-[2-(4-hydroxy-3-methoxycyclohexyl)-1-methylvinyl]-23,25-dimethoxy-13,19,21,27-tetramethyl-11,28-dioxa-4-azatricyclo[22.3.1.0^4,9]octacos-18-ene-2,3,10,16-tetraone]: the “stability of FK506 with carboxybinyl polymer” value (carboxybinyl polymer added) is recorded as “stable”. Besides, where the note is “hydroxypropyl cellulose and ascorbyl palmitate added”, the “stability of FK506 with a combination of hydroxypropyl cellulose and ascorbyl palmitate” value is reported as “stable”.
